In US20100292175A1, “USE OF HYDROXYFLAVAN DERIVATIVES FOR TASTE MODIFICATION” (Leibniz-Institut fur Pflanzenbiochemie, priority 2009, published 2010):

Experiments:
Assay type in all cases: in vivo
[1] = Bitter reduction of a bitter substance solution (caffeine), panel of experts; settings: for Bitter sensation (1-10) Sample (caffeine + substance): grading 1 [not bitter] to 10 [extremely bitter]
Description: To quantify the reduction (i.e. the masking or reduction) of the bitter sensation in a sample, the bitterness of a solution containing 500 ppm of caffeine was compared by a panel of experts in each case with a sample which contained 500 ppm of caffeine and additionally 50 ppm or 100 ppm of a substance to be assessed (in respect of the bitter-reduction ability) (grading: 1 [not bitter] to 10 [extremely bitter]).
For the evaluation, i.e. the calculation of the reduction (in %) of the bitter sensation, the mean values of the assessments by the panel of experts of the caffeine solution and the sample, to be compared, containing caffeine and a substance to be assessed were used in each case. In this respect, 2,4-dihydroxybenzoic acid (2,4-DHB) was used as the comparison (reference) according to U.S. Pat. No. 5,643,941.

[2] = Comparative Test 2: inherent sweetness (sucrose equivalence) in water, panel of experts
Description: The inherent sweetness of compound 2 from Example 1, which was dissolved in water in a pure form in different concentrations (0.0025 or 0.0050% by weight in water) was determined by a panel of experts (panelists) using a series of comparisons of different sucrose concentrations in water (0; 0.25; 0.5; 0.75; 1; 1.5; 2; 3; 4 and 5% by weight sucrose in water).
(§1) The panelists were asked to test each solution of compound 2 in water against the sucrose series and to grade them according to their degree of sweetness (sucrose equivalent). It was possible to determine the inherent sweetness of compound 2 for the above-mentioned concentrations from the results provided by the panelists. In addition to the sucrose equivalence in water (i.e. without sucrose), the sucrose equivalence in a 5% sucrose solution was also determined.

[3] = Comparative Test 2: sucrose equivalence in a 5% sucrose solution, panel of experts; settings: for Sucrose equivalence in a 5% sucrose solution, Calculation (5 + x) %: purely additive calculation; for synergy or synergistic additional effect: determined vs calculated sucrose equivalence
Description: as §1
It was possible to establish a clear synergistic sweetness enhancement even at a low concentration, not sweet per se, of approximately 25 ppm of compound 2 (from Example 1). From a purely calculational point of view, it was to be expected that a 5% sucrose solution (i.e. a sucrose solution which corresponds in sensory manner by definition to 5% sucrose equivalents) which contains 25 ppm or 50 ppm of compound 2 (from Example 1) produced a sweetness of approximately 5.84 or 6.45 sucrose equivalents by a purely additive effect of the inherent sweetness of compound 2 (see the determined sucrose equivalence in water). However, the sensory assessment of such a 5% sucrose solution with 25 ppm or 50 ppm of compound 2 (from Example 1) by the panelists produced an averaged sucrose equivalence of 6.8% or 8.2%. Considering the values to be expected from a purely calculational point of view, this corresponds to a synergy or a synergistic additional effect of approximately 17% or 27%.

[4] = Enhancement of the sweet sensation of a sugar solution, Comparative Test 1, panel of experts; settings: for Sweet sensation (1-10) Sample (sucrose + substance): grading 1 [not sweet] to 10 [extremely sweet]; for synergistic enhancement of the sweet taste of a sweet-tasting substance: according to our own experiments
Description: To quantify the enhancement of the sweet sensation, the sweetness of a 5% sucrose solution was compared by a panel of experts in each case with a sample which contained 5% of sucrose as well as 50 ppm or 100 ppm of a compound of formula (I) to be used according to the invention (grading: 1 [not sweet] to 10 [extremely sweet]).
For the evaluation, i.e. the calculation of the enhancement (in %) of the sweet sensation, the mean values of the assessments by the panel of experts of the sucrose solution and the sample, to be compared, containing sucrose and a compound of formula (I) were used in each case.

[5] = 50 ppm substance + 500 ppm caffeine vs 500 ppm caffeine solution
[6] = 50 ppm substance + 500 ppm caffeine
[7] = 50 ppm substance + 5% sucrose vs 5% sucrose solution

SMILES: COc1ccc(C2CCc3ccc(O)cc3O2)cc1O (racemic) [compound 2, 3′,7-dihydroxy-4′-methoxyflavan]
- Reduction of the bitter sensation [1, 5]: 27%
- Bitter sensation (1-10) Sample (caffeine + substance) [1, 6]: 3.9 ± 1.9
- Determination of the sucrose equivalence in water (without sucrose) ([2]; 0.0025 % by weight in water): 0.84%
- Determination of the sucrose equivalence in water (without sucrose) ([2]; 0.0050 % by weight in water): 1.45%
- Sucrose equivalence in a 5% sucrose solution, Determination ([3]; 0.0025 % by weight (25 ppm) in 5% sucrose solution): 6.8%
- Sucrose equivalence in a 5% sucrose solution, Calculation (5 + x) % ([3]; 0.0025 % by weight): 5.84%
- Sucrose equivalence in a 5% sucrose solution, Determination ([3]; 0.0050 % by weight (50 ppm) in 5% sucrose solution): 8.2%
- Sucrose equivalence in a 5% sucrose solution, Calculation (5 + x) % ([3]; 0.0050 % by weight): 6.45%
- sweetness to be expected by a purely additive effect of the inherent sweetness ([3]; 25 ppm in 5% sucrose solution): approximately 5.84 sucrose equivalents
- synergy or synergistic additional effect ([3]; 25 ppm in 5% sucrose solution): approximately 17%
- sweetness to be expected by a purely additive effect of the inherent sweetness ([3]; 50 ppm in 5% sucrose solution): ~6.45 sucrose equivalents
- synergy or synergistic additional effect ([3]; 50 ppm in 5% sucrose solution): ~27%
- Enhancement of the sweet sensation [4, 7]: 57%
- Sweet sensation (1-10) Sample (sucrose + substance) ([4]; 50 ppm substance + 5% sucrose): 8.1 ± 1.3
- synergistic enhancement of the sweet taste of a sweet-tasting substance [4]: particularly strong synergistic enhancement

SMILES: O=C(O)c1ccc(O)cc1O [2,4-DHB, 2,4-dihydroxybenzoic acid, reference compound]
- Reduction of the bitter sensation ([1]; 100 ppm substance + 500 ppm caffeine vs 500 ppm caffeine solution): 3%
- Bitter sensation (1-10) Sample (caffeine + substance) ([1]; 100 ppm substance + 500 ppm caffeine): 5.0 ± 1.0

SMILES: Oc1ccc(C2CCc3ccc(O)cc3O2)cc1 (stereo not shown) [compound 1, 4′,7-dihydroxyflavan]
- Enhancement of the sweet sensation ([4]; 100 ppm substance + 5% sucrose vs 5% sucrose solution): 21%
- Sweet sensation (1-10) Sample (sucrose + substance) ([4]; 100 ppm substance + 5% sucrose): 6.2 ± 1.5
- synergistic enhancement of the sweet taste of a sweet-tasting substance [4]: particularly strong synergistic enhancement

SMILES: COc1cc(C2CCc3ccc(O)cc3O2)ccc1O (stereo not shown) [compound 3, 4′,7-dihydroxy-3″-methoxyflavan]
- Reduction of the bitter sensation [1, 5]: 15%
- Bitter sensation (1-10) Sample (caffeine + substance) [1, 6]: 4.1 ± 1.4

SMILES: Oc1ccc(C2CCc3c(O)cc(O)cc3O2)cc1 (stereo not shown) [compound 14, 4′,5,7-trihydroxyflavan]
- Reduction of the bitter sensation [1, 5]: 26%
- Bitter sensation (1-10) Sample (caffeine + substance) [1, 6]: 3.8 ± 1.9

SMILES: COc1ccc(C2CCc3c(O)cc(O)cc3O2)cc1O (stereo not shown) [compound 15, 3′,5,7-trihydroxy-4′-methoxyflavan]
- Reduction of the bitter sensation [1, 5]: 15%
- Bitter sensation (1-10) Sample (caffeine + substance) [1, 6]: 3.8 ± 1.5
- Enhancement of the sweet sensation [4, 7]: 21%
- Sweet sensation (1-10) Sample (sucrose + substance) ([4]; 50 ppm substance + 5% sucrose): 5.8 ± 1.6

SMILES: COc1cc(C2CCc3c(O)cc(O)cc3O2)ccc1O (stereo not shown) [compound 16, 4′,5,7-trihydroxy-3′-methoxyflavan]
- Reduction of the bitter sensation [1, 5]: 5%
- Bitter sensation (1-10) Sample (caffeine + substance) [1, 6]: 4.1 ± 2.0

SMILES: COc1ccc([C@@H]2CCc3ccc(O)cc3O2)cc1O [compound S-2, (2S)-3′,7-dihydroxy-4″-methoxyflavan]
- Reduction of the bitter sensation [1, 5]: 16%
- Bitter sensation (1-10) Sample (caffeine + substance) [1, 6]: 3.9 ± 1.5
- Enhancement of the sweet sensation [4, 7]: 36%
- Sweet sensation (1-10) Sample (sucrose + substance) ([4]; 50 ppm substance + 5% sucrose): 7.8 ± 1.7
